Starred links: 1 amine or outer side, 2 acyl side, 3 side chain; linkers in the order of their positions; H or OH if unused. Positions of bridges follow the written chain, without caps; N, C: chain ends. Non-standard residues stand in square brackets, D forms with d. Residues, ends and D or L forms follow the SMILES beside them. *: point of attachment. NMeF = CN[C@@H](Cc1ccccc1)C(=O)O; NMeβAla = CN(CCC(=O)[*:2])[*:1]; NMeL = CN[C@@H](CC(C)C)C(=O)O; NMeV = CN[C@H](C(=O)O)C(C)C; NMeA = CN[C@@H](C)C(=O)O; Piperidide = C1CCN(*)CC1; dNMeA = CN[C@H](C)C(=O)O; Sar = CNCC(=O)O; tBu = CC(C)(C)*
How the values were obtained:
[1] = PAMPA (parallel artificial membrane permeability assay); assay type: in vitro ADME; settings: PAMPA; membrane permeation rate (Pe); 50 mM MOPSO buffer pH 6.5 with 5.0% glycocholic acid, 37° C., 18 hours; read-out: iPAMPA Pe
In short: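 Artificial membrane was 10% (w/v) egg lecithin plus 0.5% (w/v) cholesterol in dodecane on a PVDF filter. A 10 mM DMSO stock was added at 0.5% (v/v) to donor buffer (50 mM MOPSO, pH 6.5, 5.0% glycocholic acid). After 18 h at 37 °C, LC/MS or LC/UV gave donor and acceptor levels for Pe.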

[2] = Metabolic stability in human hepatic microsome; assay type: in vitro ADME; settings: microsomes, pH 7.4; human hepatic microsome, NADPH(+); read-out: CL NADPH(+)

SMILES	Papp at 18 hours, 50 µM [1]	microsomal CLint at 1 uM [2]
CC(C)C[C@H]1C(=O)N(C)[C@@H](C(C)C)C(=O)N(C)[C@@H](C)C(=O)N[C@@H](Cc2ccccc2)C(=O)N(C)[C@@H](C)C(=O)N[C@H](C(=O)N2CCCCC2)CC(=O)N(C)[C@@H](C)C(=O)N[C@@H]([C@@H](C)O)C(=O)N(C)[C@@H](C)C(=O)N[C@@H](C)C(=O)N(C)[C@@H](Cc2ccccc2)C(=O)N1C [DP-322] ([NMeA]T[NMeA]A[NMeF][NMeL][NMeV][NMeA]F[NMeA]D-Piperidide; lactam N-11)	10 ×10⁻⁶ cm/s	74 µL/min/mg
CC[C@H](C)[C@@H]1NC(=O)[C@H](CC(C)C)NC(=O)[C@H](CC(C)C)N(C)C(=O)[C@H](CC(C)C)NC(=O)[C@H](CC(C)C)NC(=O)[C@H](Cc2ccccc2)NC(=O)[C@H](CC(C)C)NC(=O)[C@H](Cc2ccccc2)NC(=O)[C@H]([C@@H](C)O)NC(=O)CCN(C)C(=O)C[C@@H](C(=O)N2CCCCC2)NC1=O [DP-323] ([NMeβAla]TFLFLL[NMeL]LID-Piperidide; lactam N-11)	7.8 ×10⁻⁶ cm/s	182 µL/min/mg
CC(C)C[C@@H]1NC(=O)CCN(C)C(=O)C[C@@H](C(=O)N2CCCCC2)NC(=O)[C@H](CC(C)C)N(C)C(=O)[C@H](CC(C)C)NC(=O)[C@H](Cc2ccccc2)NC(=O)[C@H](C)NC(=O)[C@H]([C@@H](C)O)NC(=O)[C@H](CC(C)C)NC(=O)CN(C)C(=O)[C@H](CC(C)C)NC1=O [DP-324] ([NMeβAla]LL[Sar]LTAFL[NMeL]D-Piperidide; lactam N-11)	7.7 ×10⁻⁶ cm/s	59 µL/min/mg
CC(C)C[C@H]1C(=O)N(C)[C@@H](C)C(=O)N[C@@H](C)C(=O)N[C@H](C(=O)N2CCCCC2)CC(=O)N(C)CCC(=O)N(C)[C@@H](Cc2ccccc2)C(=O)N(C)[C@@H](C)C(=O)N[C@@H]([C@@H](C)O)C(=O)N(C)[C@@H](C)C(=O)N[C@@H](Cc2ccccc2)C(=O)N(C)[C@@H](C(C)C)C(=O)N1C [DP-326] ([NMeβAla][NMeF][NMeA]T[NMeA]F[NMeV][NMeL][NMeA]AD-Piperidide; lactam N-11)	2.5 ×10⁻⁶ cm/s	15 µL/min/mg
CC[C@H](C)[C@@H]1NC(=O)[C@@H](C)N(C)C(=O)C[C@@H](C(=O)N2CCCCC2)NC(=O)[C@H](Cc2ccccc2)NC(=O)[C@H]([C@@H](C)O)NC(=O)[C@H](CC(C)C)NC(=O)[C@H](CC(C)C)NC(=O)CN(C)C(=O)[C@H](CC(C)C)NC(=O)[C@H](C)NC(=O)[C@H](CC(C)C)NC1=O [DP-327] ([dNMeA]ILAL[Sar]LLTFD-Piperidide; lactam N-11)	3.5 ×10⁻⁶ cm/s	70 µL/min/mg
CC[C@H](C)[C@@H]1NC(=O)[C@H]([C@@H](C)O)NC(=O)[C@H](CC(C)C)NC(=O)[C@H](Cc2ccccc2)NC(=O)[C@H](CC(C)C)NC(=O)[C@H](C)NC(=O)C[C@@H](C(=O)N2CCCCC2)NC(=O)[C@H](Cc2ccccc2)NC(=O)[C@H](CC(C)C)NC(=O)[C@H](Cc2ccccc2)N(C)C1=O [DP-329] (ALFLTI[NMeF]LFD-Piperidide; lactam N-10)	2.4 ×10⁻⁶ cm/s	66 µL/min/mg
CC[C@H](C)[C@@H]1NC(=O)[C@H](CC(C)C)NC(=O)[C@H](Cc2ccccc2)NC(=O)[C@H](CC(C)C)NC(=O)CN(C)C(=O)[C@H](Cc2ccccc2)NC(=O)[C@H](C)NC(=O)C[C@@H](C(=O)N2CCCCC2)NC(=O)[C@H](Cc2ccccc2)NC(=O)[C@H]([C@@H](C)O)NC1=O [DP-330] (AF[Sar]LFLITFD-Piperidide; lactam N-10)	9.9 ×10⁻⁶ cm/s	61 µL/min/mg
CC[C@H](C)[C@@H]1NC(=O)[C@H](CC(C)C)NC(=O)[C@H](C)N(C)C(=O)C[C@@H](C(=O)N2CCCCC2)NC(=O)[C@H](CC(C)C)NC(=O)[C@H](Cc2ccccc2)NC(=O)[C@H](Cc2ccccc2)N(C)C(=O)[C@H](CC(C)C)NC(=O)[C@H]([C@@H](C)O)NC(=O)[C@H](Cc2ccccc2)NC1=O [DP-331] ([NMeA]LIFTL[NMeF]FLD-Piperidide; lactam N-10)	0.24 ×10⁻⁶ cm/s	198 µL/min/mg
CC[C@H](C)[C@@H]1NC(=O)[C@H](Cc2ccccc2)NC(=O)[C@H](C)N(C)C(=O)C[C@@H](C(=O)N2CCCCC2)NC(=O)[C@H](CC(C)C)NC(=O)[C@H](Cc2ccccc2)NC(=O)[C@H](Cc2ccccc2)N(C)C(=O)[C@H](CC(C)C)NC(=O)[C@H]([C@@H](C)O)NC(=O)[C@H](CC(C)C)N(C)C1=O [DP-332] ([NMeA]FI[NMeL]TL[NMeF]FLD-Piperidide; lactam N-10)	14 ×10⁻⁶ cm/s	284 µL/min/mg
CC[C@H](C)[C@@H]1NC(=O)[C@H](CC(C)C)N(C)C(=O)[C@H](Cc2ccccc2)NC(=O)CCN(C)C(=O)C[C@@H](C(=O)N2CCCCC2)NC(=O)[C@H](CC(C)C)NC(=O)[C@H](Cc2ccccc2)NC(=O)[C@H](Cc2ccccc2)N(C)C(=O)[C@H](CC(C)C)NC(=O)[C@H]([C@@H](C)O)NC1=O [DP-334] ([NMeβAla]F[NMeL]ITL[NMeF]FLD-Piperidide; lactam N-10)	20 ×10⁻⁶ cm/s	80 µL/min/mg
CC(C)C[C@@H]1NC(=O)[C@H](Cc2ccccc2)N(C)C(=O)CNC(=O)[C@H](Cc2ccccc2)NC(=O)[C@H]([C@@H](C)O)NC(=O)[C@H](CC(C)C)N(C)C(=O)CCN(C)C(=O)C[C@@H](C(=O)N2CCCCC2)NC(=O)[C@H](COC(C)(C)C)NC(=O)[C@H](CC(C)C)N(C)C1=O [DP-335] ([NMeβAla][NMeL]TFG[NMeF]L[NMeL]S(tBu)D-Piperidide; lactam N-10)	22 ×10⁻⁶ cm/s	109 µL/min/mg
CC(C)C[C@H]1C(=O)N(C)[C@@H](Cc2ccccc2)C(=O)N[C@@H]([C@@H](C)O)C(=O)N(C)[C@@H](C)C(=O)N(C)[C@@H](Cc2ccccc2)C(=O)N(C)[C@@H](C)C(=O)N[C@H](C(=O)N2CCCCC2)CC(=O)N(C)CCC(=O)N(C)[C@@H](C(C)C)C(=O)N[C@@H](C)C(=O)N1C [DP-337] ([NMeβAla][NMeV]A[NMeL][NMeF]T[NMeA][NMeF][NMeA]D-Piperidide; lactam N-10)	17 ×10⁻⁶ cm/s	74 µL/min/mg
CC[C@H](C)[C@@H]1NC(=O)[C@H](Cc2ccccc2)NC(=O)[C@@H](C)N(C)C(=O)C[C@@H](C(=O)N2CCCCC2)NC(=O)[C@H](Cc2ccccc2)N(C)C(=O)[C@H](Cc2ccccc2)NC(=O)[C@H](CC(C)C)NC(=O)[C@H]([C@@H](C)O)NC(=O)[C@H](CC(C)C)NC(=O)[C@H](CC(C)C)N(C)C1=O [DP-338] ([dNMeA]FI[NMeL]LTLF[NMeF]D-Piperidide; lactam N-10)	4.9 ×10⁻⁶ cm/s	146 µL/min/mg
CC[C@H](C)[C@@H]1NC(=O)[C@H](C(C)C)N(C)C(=O)[C@@H](C)N(C)C(=O)C[C@@H](C(=O)N2CCCCC2)NC(=O)[C@H](CC(C)C)NC(=O)[C@H](Cc2ccccc2)N(C)C(=O)[C@H](CC(C)C)N(C)C(=O)[C@H](Cc2ccccc2)NC(=O)[C@H]([C@@H](C)O)NC(=O)[C@H](CC(C)C)NC1=O [DP-339] ([dNMeA][NMeV]ILTF[NMeL][NMeF]LD-Piperidide; lactam N-10)	18 ×10⁻⁶ cm/s	213 µL/min/mg
CC(C)C[C@H]1C(=O)N[C@@H](COC(C)(C)C)C(=O)N(C)[C@@H](Cc2ccccc2)C(=O)N(C)[C@@H](C)C(=O)N[C@@H](Cc2ccccc2)C(=O)N(C)[C@@H](C(C)C)C(=O)N[C@H](C(=O)N2CCCCC2)CC(=O)N(C)[C@H](C)C(=O)N[C@@H]([C@@H](C)O)C(=O)NCC(=O)N1C [DP-340] ([dNMeA]TG[NMeL]S(tBu)[NMeF][NMeA]F[NMeV]D-Piperidide; lactam N-10)	31 ×10⁻⁶ cm/s	86 µL/min/mg
CC(C)C[C@H]1C(=O)N[C@@H](C)C(=O)N(C)[C@@H](Cc2ccccc2)C(=O)N(C)[C@@H](C)C(=O)N(C)[C@@H](Cc2ccccc2)C(=O)N[C@@H]([C@@H](C)O)C(=O)N(C)[C@@H](C)C(=O)N[C@H](C(=O)N2CCCCC2)CC(=O)N(C)[C@H](C)C(=O)N(C)[C@@H](C)C(=O)N1C [DP-341] ([dNMeA][NMeA][NMeL]A[NMeF][NMeA][NMeF]T[NMeA]D-Piperidide; lactam N-10)	9.5 ×10⁻⁶ cm/s	69 µL/min/mg
CC[C@H](C)[C@@H]1NC(=O)[C@H](CC(C)C)N(C)C(=O)CN(C)C(=O)[C@H]([C@@H](C)O)NC(=O)[C@H](Cc2ccccc2)N(C)C(=O)[C@H](CC(C)C)N(C)C(=O)[C@H](C)N(C)C(=O)C[C@@H](C(=O)N2CCCCC2)NC(=O)[C@H](CC(C)C)N(C)C1=O [DP-342] ([NMeA][NMeL][NMeF]T[Sar][NMeL]I[NMeL]D-Piperidide; lactam N-9)	33 ×10⁻⁶ cm/s	121 µL/min/mg
CC(C)C[C@@H]1NC(=O)[C@@H](C)N(C)C(=O)C[C@@H](C(=O)N2CCCCC2)NC(=O)[C@H]([C@@H](C)O)NC(=O)[C@H](CC(C)C)N(C)C(=O)[C@H](CC(C)C)N(C)C(=O)[C@H](Cc2ccccc2)NC(=O)[C@H](CC(C)C)N(C)C(=O)[C@H](Cc2ccccc2)N(C)C1=O [DP-343] ([dNMeA]L[NMeF][NMeL]F[NMeL][NMeL]TD-Piperidide; lactam N-9)	36 ×10⁻⁶ cm/s	427 µL/min/mg
CC(C)C[C@H]1C(=O)N(C)[C@@H](C)C(=O)N(C)[C@@H](Cc2ccccc2)C(=O)N[C@@H]([C@@H](C)O)C(=O)N(C)[C@@H](C)C(=O)N(C)[C@@H](Cc2ccccc2)C(=O)N[C@H](C(=O)N(C)[C@@H](Cc2ccccc2)C(=O)N[C@@H](C)C(=O)N2CCCCC2)CC(=O)N(C)[C@@H](C)C(=O)N(C)[C@@H](C)C(=O)N(C)[C@@H](CC(C)C)C(=O)N[C@@H](C)C(=O)N1C [DP-344] ([NMeA][NMeA][NMeL]A[NMeL][NMeA][NMeF]T[NMeA][NMeF]D[NMeF]A-Piperidide; lactam N-11)	22 ×10⁻⁶ cm/s	30 µL/min/mg

From patent US9409952B2, “Peptide-compound cyclization method” (Chugai Seiyaku Kabushiki Kaisha, priority 2011, dated 2016)
